The record followed here is patent publication US7115750B1, “Melanin concentrating hormone antagonist” (Takeda Pharmaceutical Company Limited, priority 1999, dated 2006).

In general, melting point refers to the temperature of the solid-liquid transition. Turning to `Cc1cc(C(=O)Nc2ccc3c(c2)CCC(CN(C)C)C3)ccc1Br` (stereo not shown) [Example 25, 4-Bromo-N-[6[(N,N-dimethylamino)methyl]-5,6,7,8-tetrahydro-2-naphthalenyl]-3-methylbenzamide], the melting point was 154 to 155 °C.
For `Cc1ccc(C2CCN(C(=O)Nc3ccc4c(c3)CCC(CN3CCN(C)CC3)=C4)CC2)cc1` [Example 241, 4-(4-Methylphenyl)-N-[6-[(4-methyl-1-piperazinyl)methyl]-7,8-dihydro-2-naphthalenyl]-1-piperidinecarboxamide] the value was 214 to 216 °C.
The molecule `CN(C)CC1=Cc2ccc(NC(=O)c3ccc(-c4ccc(F)cc4)nc3)cc2CC1` [Example 151] displayed a melting point of 216 to 219 °C.
For `O=C(Nc1ccc2c(c1)CCC(CN1CCCC1)=C2)N1CC=C(c2ccc(Cl)cc2)CC1` [Example 159] the value was 217 to 218 °C; for `CN(C)CC1CCc2cc(NC(=O)c3ccc(-c4ccc(-c5ccccc5)cc4)cc3)ccc2C1.Cl` (stereo not shown), 220 °C (dec.).
For `CN(C)CC1=Cc2ccc(NC(=O)c3ccc(-c4ccc(F)cc4)cc3)cc2C1` [Example 245, N-[2-[(Dimethylamino)methyl]-1H-inden-6-yl]-4′-fluoro[1,1′-biphenyl]-4-carboxamide] the value was 209 to 211 °C.
For `CN(C)CC1CCc2cc(NC(=O)c3ccc(-c4ccc(C(=O)O)cc4)cc3)ccc2C1` (stereo not shown) [Example 40, 4′-[[[6-[(N,N-Dimethylamino)methyl]-5,6,7,8-tetrahydro-2-naphthalenyl]amino]carbonyl][1,1′-biphenyl]-4-carboxylic acid] the value was 143 °C (dec.); for `Cl.O=C(Nc1ccc(C(=O)C2CCCNC2)cc1)c1ccc(-c2ccc(Cl)cc2)cc1` (stereo not shown), 222 to 225 °C (dec.); for `CN(C)CC1=Cc2ccc(NC(=O)c3ccc(-c4ccc(Cl)cc4)cc3)cc2C1` [Example 246, 4′-Chloro-N-[2-[(dimethylamino)methyl]-1H-inden-6-yl][1,1′-biphenyl]-4-carboxamide], 218 to 220 °C.
`CNc1ccc(-c2ccc(C(=O)Nc3ccc4c(c3)CCC(CN(C)C)C4)cc2)cc1` (stereo not shown) [Example 38, N-[6-[(N,N-Dimethylamino)methyl]-5,6,7,8-tetrahydro-2-naphthalenyl]-4′-(methylamino)[1,1′-biphenyl]-4-carboxamide] registered a melting point of 163 to 165 °C.
The molecule `O=C(Nc1ccc2c(c1)CCC(CCN1CCCC1)=C2)c1ccc(-c2ccc(Cl)cc2)cc1` [Example 206, 4′-Chloro-N-[6-[2-(1-pyrrolidinyl)ethyl]-7,8-dihydro-2-naphthalenyl][1,1′-biphenyl]-4-carboxamide] displayed a melting point of 207 to 209 °C.
With `CN(C)CC1CCc2cc(NC(=O)c3ccc(Oc4ccccc4)cc3)ccc2C1` (stereo not shown) [Example 9, N-[2-(N,N-Dimethylamino)methyl-6-tetralinyl]-4-phenoxy benzamide], the melting point was 137 to 139 °C.
In the case of `CN(C)CC1CCc2cc(NC(=O)c3ccc(-c4cccnc4)cc3)ccc2C1` (stereo not shown) [Example 30, N-[6-[(N,N-Dimethylamino)methyl]-5,6,7,8-tetrahydro-2-naphthalenyl]-4-(3-pyridinyl)benzamide], the melting point was in the range of 177 to 178 °C.
In turn, `CC1=C(CN2CCCC2)CCc2cc(NC(=O)c3ccc(-c4ccccc4)nc3)ccc21` [Example 233, N-[5-Methyl-6-(1-pyrrolidinylmethyl)-7,8-dihydro-2-naphthalenyl]-6-phenylnicotinamide] displayed a melting point of 178 to 179 °C.
For `CN(C)CC1CCc2cc(NC(=O)c3ccc(-c4ccc([O-])cc4)cc3)ccc2C1.[Na+]` (stereo not shown) [Example 19, Sodium salt of N-[6-[(N,N-dimethylamino)methyl]-5,6,7,8-tetrahydro-2-naphthalenyl]-4′-oxy[1,1′-biphenyl]-4-carboxamide] the value was 246 to 248 °C; for `COc1ccc(-c2ccc(C(=O)Nc3ccc(CC(=O)NCCN(C)C)cc3)cc2)cc1` [Example 193, N-[4-[2-[[2-(Dimethylamino)ethyl]amino]-2-oxoethyl]phenyl]-4′-methoxy[1,1′-biphenyl]-4-carboxamide], 196 to 198 °C (dec.).
Regarding `CN(C)CC1CCc2cc(NC(=O)c3ccc(C(=O)Nc4ccccc4)cc3)ccc2C1` (stereo not shown) [Example 10, N^1-[2-(N,N-Dimethylamino)methyl-6-tetralinyl]-N^4-phenyl terephthalamide], the melting point was 238 to 240 °C (dec.).
For `CN(C)CC1CCc2cc(NC(=O)c3ccc(-c4ccc(C5=NC(C)(C)CO5)cc4)cc3)ccc2C1` (stereo not shown) [Example 32, N-[6-[(N,N-Dimethylamino)methyl]-5,6,7,8-tetrahydro-2-naphthalenyl]-4′-(4,4-dimethyl-4,5-dihydro-1,3-oxazole 2-yl)[1,1′-biphenyl]-4-carboxamide] the value was 185 to 187 °C; for `CN(C)CC1CCc2cc(NC(=O)c3ccc(-c4ccc(N(C)C)cc4)cc3)ccc2C1` (stereo not shown) [Example 37, 4′-(N,N-Dimethylamino)-N-[6-[(N,N-dimethylamino)methyl]-5,6,7,8-tetrahydro-2-naphthalenyl][1,1′-biphenyl)-4-carboxamide], 212 to 213 °C; for `CN(C)CC1Cc2ccc(NC(=O)c3ccc(-c4ccc(Cl)cc4)cc3)cc2C1` (stereo not shown) [Example 43, 4′-Chloro-N-[2-[(dimethylamino)methyl]-2,3-dihydro-1H-inden-5-yl][1,1′-biphenyl]-4-carboxamide], 192 to 194 °C.
In the case of `Cl.O=C(Nc1ccc(CC2CCCNC2)cc1)c1ccc(-c2ccc(F)cc2)cc1` (stereo not shown), the melting point is 205 °C (dec.).
For `N#CC1=C(CN2CCCC2)CCc2cc(NC(=O)c3ccc(-c4ccccc4)cc3)ccc21` [Example 118, N-[5-Cyano-6-(1-pyrrolidinylmethyl)-7,8-dihydro-2-naphthalenyl][1,1′-biphenyl]-4-carboxamide] the value was 168 to 170 °C; for `CN(C)CC1=Cc2ccc(NC(=O)c3ccc(-c4ccc(Cl)cc4)nc3)cc2CC1` [Example 164, 6-(4-Chlorophenyl)-N-[6-[(dimethylamino)methyl]-7,8-dihydro-2-naphthalenyl]nicotinamide], 248 to 249 °C.
For `CN(C)CC1CCc2cc(NC(=O)c3ccc(-c4ccccc4)cc3)ccc2C1` (stereo not shown) [compound 24, N-[2-(N,N-Dimethylamino)methyl-6-tetralinyl]-4-biphenylylcarboxamide] the value was 164 to 166 °C; for `CN(C)CC1CCc2cc(NC(=O)c3ccc4c(c3)C(=O)c3ccccc3-4)ccc2C1` (stereo not shown) [Example 6, N-[2-(N,N-Dimethylamino)methyl-6-tetralinyl]-9-oxo-9H-fluoren-2-carboxamide], 224 to 226 °C.
Take `Cl.O=C(Nc1ccc(CC2CCCNC2)cc1)c1ccc(-c2ccccc2)cc1` (stereo not shown): the melting point is 218 to 220 °C (dec.).
As for `CN(C)CC1=Cc2ccc(NC(=O)c3ccc(-c4ccc(F)cc4F)nc3)cc2CC1` [Example 152, 6-(2,4-Difluorophenyl)-N-[6-[(dimethylamino)methyl]-7,8-dihydro-2-naphthalenyl]nicotinamide], the melting point is 162 to 163 °C.
`CN(C)CC1CCc2cc(NC(=O)c3ccc(-c4ccc(N)cc4)cc3)ccc2C1` (stereo not shown) [Example 33, 4′-Amino-N-[6-[(N,N-dimethylamino)methyl]-5,6,7,8-tetrahydro-2-naphthalenyl][1,1′-biphenyl]-4-carboxamide] displayed a melting point of 148 to 150 °C.
